Test results reported in publication PMC6964649, “Light-controllable dithienylethene-modified cyclic peptides: photoswitching the in vivo toxicity in zebrafish embryos” (Beilstein Journal of Organic Chemistry, 2020).
Starred links: 1 amine or outer side, 2 acyl side, 3 side chain; linkers in the order of their positions; H or OH if unused. Positions of bridges follow the written chain, without caps; N, C: chain ends. Non-standard residues stand in square brackets, D forms with d. Residues, ends and D or L forms follow the SMILES beside them. X2 = Cc1sc(C(=O)[C@@H]2CCCN2[*:2])cc1C1=C(c2cc(C(=O)[*:1])sc2C)CCC1; Leu(3R-OH) = CC(C)[C@@H](O)[C@H](N)C(=O)O; X1 = CCCCN([C@@H](CC(C)C)C(=O)[*:2])[*:1]; Orn = NCCC[C@H](N)C(=O)O

What was measured:
D. rerio embryos [1] = assay: D. rerio embryotoxicity assay, direct application of ring-open photoform; type: in vivo, Danio rerio; details: direct application of 1 or ring-open photoform, zebrafish embryos at 3 dpf, final DMSO 0.2%, ambient light, value ± STD; for LD50 (open)^1h: 1 h incubation, 12–15 or 18–20 embryos; for LD50 (open)^3h: 3 h incubation; for LD50 (open)^24h: 24 h incubation
Protocol: (§1) To establish the assay for screening the photoswitchable peptides, we first studied the toxicity of our prototype 2 by varying the assay conditions. The parent peptide GS 1 was used as a control. […] We measured the doses causing the death of 50% embryos (LD50). We tested two different assay variations: in one version, the LD50(open) was determined after direct application of 1 or of the ring-open form of 2. In the other variant, the photoswitchable peptide was applied in the ring-closed photoform in the darkness, its LD50(closed) was recorded, and then in situ illumination (“photoactivation”) was applied to switch into the ring-open photoform and obtain the respective LD50(opened) values (see Figure 2 for the study design and the killing curves).
(§2) Figure 2 Two versions of the D. rerio embryotoxicity assay for DAE-modified peptides: timelines, peptide photostates, ages of larvae, and definitions of the measured characteristics. (A) Direct application of the non-photoswitchable parent GS 1 or of the ring-open photoform of our prototype 2, and the corresponding killing curves for 1 (C, top, black) and 2 (C, bottom, red). (B) “Photoactivation” assay: initial application of the ring-closed photoform, incubation in darkness, followed by in situ photoconversion into the ring-open(ed) photoform, with the corresponding killing curves for 1 (D, top) and 2 (D, bottom, green for ring-closed, red for ring-open isomers). The latter panel illustrates the “phototherapeutic safety window” (green arrow) as the difference in toxicity between the ring-closed and the ring-open isomers upon photoactivation.
(§3) Each time, 12–15 or 18–20 zebrafish embryos at 3 dpf were treated by applying the corresponding peptide dissolved in dimethyl sulfoxide (final dimethyl sulfoxide concentration was 0.2%). Double-concentrated peptide stock solutions (64–512 µg/mL) were prepared by weighing lyophilized peptides, dissolving in 10% dimethyl sulfoxide and constructing two-fold dilution series with ten–eleven dilution steps. In the photoconversion experiments, in order to prevent spontaneous photoswitching of the ring-closed peptides by vis light, zebrafish embryos and peptides were kept in the dark before the first readout, and the vials were sealed to avoid evaporation of the embryonic medium (E3) at prolonged incubation times. After the first screen, without exchanging any solution, the vials with embryos and ring-closed photoforms were exposed to intense illumination for 10 min (LUMATEC Superlite 410 light source, λ = 570 nm, irradiance approximately 20 mW/cm^2). Mortality was then determined under ambient light conditions at 1 h and 24 h after the illumination procedure.

[2] = observed water solubility and aggregation; type: physicochemical; details: ring-open form; observation in words
Text: We have also analyzed the correlation between the empirical low-pH hydrophobicity of the peptides (as assessed from the retention times in reversed-phase HPLC) and toxicity against zebrafish embryos. Independent on the photoisomeric state and the type of toxicity assay, decreasing polarity of the peptides is accompanied by an increase in toxicity against zebrafish embryos (compare Figure 3A and 3B). Within the different series of peptides (the series are marked with different colors in Figure 3 for clarity) we get almost linear toxicity–hydrophobicity correlations in most cases, and all the outliers are readily explainable.

D. rerio embryos [3] = assay: D. rerio embryotoxicity "photoactivation" assay (ring-closed photoform in darkness, then in situ photoconversion); type: in vivo, Danio rerio; details: for LD50 (opened)^1h / LD50 (opened)^24h: after 24 h with ring-closed form in dark, in situ illumination 10 min, λ = 570 nm, approx. 20 mW/cm^2; for LD50 (opened)^1h: mortality 1 h after illumination, embryos 4 dpf; for LD50 (opened)^1h / LD50 (opened)^24h / LD50 (closed)^24h: value ± STD; for LD50 (opened)^24h: mortality 24 h after illumination, embryos 5 dpf at readout; for LD50(closed)^24h/LD50(open)^24h ratio: phototherapeutic safety window, ring-closed 24 h LD50 (dark) divided by ring-open 24 h LD50 (direct application); for LD50 (closed)^24h: ring-closed photoform applied to embryos at 3 dpf, 24 h in the dark, sealed vials, E3 medium, 0.2% DMSO
Protocol: as §1, §2, §3

Compound | LD50 (open)^1h (D. rerio embryos [1]) | LD50 (open)^3h (D. rerio embryos [1]) | LD50 (open)^24h (D. rerio embryos [1]) | water solubility and aggregation [2] | LD50 (opened)^1h (D. rerio embryos [3]) | LD50 (opened)^24h (D. rerio embryos [3]) | LD50(closed)^24h/LD50(open)^24h ratio (D. rerio embryos [3]) | LD50 (closed)^24h (D. rerio embryos [3])
CCCCN1C(=O)[C@@H](Cc2ccccc2)NC(=O)[C@H](CC(C)C)NC(=O)[C@H](CCCN)NC(=O)[C@H]([C@@H](C)CC)NC(=O)c2cc(c(C)s2)C2=C(CCC2)c2cc(sc2C)C(=O)[C@@H]2CCCN2C(=O)[C@H](CC(C)C)NC(=O)[C@H](CCCN)NC(=O)[C@H]([C@@H](C)CC)NC(=O)[C@@H]1CC(C)C [Peptide 11] (I[Orn]L[dF][X1]I[Orn]L; linker N-C via X2) | 3.0 ± 1.8 µg/mL | 2.4 ± 0.7 µg/mL | 1.6 ± 0.1 µg/mL | very low water solubility and tendency to aggregate | 4.0 ± 0.3 µg/mL | 3.0 ± 1.0 µg/mL | 2.8 | 4.4 ± 0.2 µg/mL
Cc1sc2cc1C1=C(CCC1)c1cc(sc1C)C(=O)[C@@H]1CCCN1C(=O)[C@H](C(C)C)NC(=O)[C@H](CCCN)NC(=O)[C@H]([C@H](O)C(C)C)NC(=O)[C@@H]1CCCN1C(=O)[C@@H](Cc1ccccc1)NC(=O)[C@H](C(C)C)NC(=O)[C@H](CCCN)NC(=O)[C@H]([C@H](O)C(C)C)NC2=O [Peptide 15] ([Leu(3R-OH)][Orn]V[dF]P[Leu(3R-OH)][Orn]V; linker N-C via X2) | 36.5 ± 2.1 µg/mL | 14.1 ± 6.0 µg/mL | 7.2 ± 3.8 µg/mL | – | 22.9 ± 0.2 µg/mL | 7.2 ± 0.7 µg/mL | 7.8 | 56.1 ± 12.2 µg/mL
Cc1sc2cc1C1=C(CCC1)c1cc(sc1C)C(=O)[C@@H]1CCCN1C(=O)[C@H](CC(C)C)NC(=O)[C@H](CCCCN)NC(=O)[C@H](C(C)C)NC(=O)[C@H](CCCCN)NC(=O)[C@H](CC(C)C)NC(=O)[C@@H]1CCCN1C(=O)[C@@H](Cc1ccccc1)NC(=O)[C@H](C(C)C)NC(=O)[C@H](CCCCN)NC(=O)[C@H](CC(C)C)NC(=O)[C@H](CCCCN)NC(=O)[C@H](C(C)C)NC2=O [Peptide 16] (VKLKV[dF]PLKVKL; linker N-C via X2) | 3.1 ± 1.0 µg/mL | 3.1 ± 1.0 µg/mL | 1.6 ± 0.0 µg/mL | – | 5.6 ± 0.5 µg/mL | 5.2 ± 0.5 µg/mL | 3.8 | 6.0 ± 0.1 µg/mL
Cc1sc2cc1C1=C(CCC1)c1cc(sc1C)C(=O)[C@@H]1CCCN1C(=O)[C@H](C(C)C)NC(=O)[C@H](CCCCN)NC(=O)[C@H](C(C)C)NC(=O)[C@@H](CCCCN)NC(=O)[C@H](CC(C)C)NC(=O)[C@@H]1CCCN1C(=O)[C@@H](Cc1ccccc1)NC(=O)[C@H](C(C)C)NC(=O)[C@H](CCCCN)NC(=O)[C@H](CC(C)C)NC(=O)[C@H](CCCCN)NC(=O)[C@H](C(C)C)NC2=O [Peptide 17] (VKLKV[dF]PL[dK]VKV; linker N-C via X2) | 10.5 ± 5.8 µg/mL | 10.5 ± 5.8 µg/mL | 3.2 ± 0.2 µg/mL | – | 9.9 ± 0.1 µg/mL | 9.4 ± 0.7 µg/mL | 3.1 | 9.9 ± 0.1 µg/mL
Cc1sc2cc1C1=C(CCC1)c1cc(sc1C)C(=O)[C@@H]1CCCN1C(=O)[C@H](C(C)C)NC(=O)[C@H](CCCCN)NC(=O)[C@H](C(C)C)NC(=O)[C@H](CC(C)C)NC(=O)[C@H](CCCCN)NC(=O)[C@@H]1CCCN1C(=O)[C@@H](Cc1ccccc1)NC(=O)[C@H](C(C)C)NC(=O)[C@H](CCCCN)NC(=O)[C@H](CC(C)C)NC(=O)[C@H](CCCCN)NC(=O)[C@H](C(C)C)NC2=O [Peptide 18] (VKLKV[dF]PKLVKV; linker N-C via X2) | 0.9 ± 0.4 µg/mL | 0.9 ± 0.4 µg/mL | 0.4 ± 0.2 µg/mL | – | 12.3 ± 1.5 µg/mL | 12.3 ± 1.5 µg/mL | 30.8 | 12.3 ± 1.5 µg/mL
DAE-OrnN3-OLfPVOL (bicyclic or more) [Peptide 20, "click"-chemistry connected homodimer of DAE-modified macrocycle (series v)] | 3.7 ± 1.9 µg/mL | 3.7 ± 1.9 µg/mL | 1.5 ± 0.0 µg/mL | – | 8.4 ± 3.3 µg/mL | 3.5 ± 0.6 µg/mL | 7.1 | 10.7 ± 0.1 µg/mL
